In patent US10307411B2, “Use of cotinine in treating or preventing neurogenesis deficits and enhancing neurogenesis” (Department of Veterans Affairs, priority 2014, dated 2019):

Key:
monocytes = conditions: α7nAChR-dependent; cited from earlier work
[1] = clinical studies, doses up to 1.5 mg cotinine base/kg; cited from earlier work
[2] = Weight gain in rats subjected to CMF chemotherapy; format: in vivo, Wistar female rats
Experimental: Wistar female rats (2-4 months of age, 200-300 g) (n=10/group) were obtained from Harlan laboratories. Rats were housed in pairs, kept at 12 h light/12 h dark cycle and maintained in an air-conditioned room at a temperature of 21±1° C. and relative humidity of 60±10%. Food and water were available ad libitum. All rats were acclimated to the Veterinary Medical Unit for 1 week and handled daily. Weight was recorded every 2 days to assess for dehydration induced by the chemotherapy regime. All procedures were approved by the Institutional Animal Care and Use (IACUC) committee of the Bay Pines Veterans Affairs (VA) Healthcare System, in accordance with VA and The Guide for the Care and Use of Laboratory Animals. Following the habituation period, rats were divided into 4 groups (n=6-12/condition) and treated with warm saline (vehicle) or a combination of cyclophosphamide (40 mg/kg), methotrexate (37.5 mg/kg) and 5-fluorouracil (75 mg/kg) (CMF) via intraperitoneal (i.p. or IP) injection once a week for 2 weeks, the shortest time inducing cognitive impairment in the rats. […] Differences among the means were analyzed using one-way analysis of variance (ANOVA). […]

[3] = Novel location recognition test (NOL), spatial recognition memory in rats subjected to CMF chemotherapy; format: in vivo, Wistar female rats; conditions: CMF-treated rats, cotinine 5 mg/kg oral
Experimental: Wistar female rats (2-4 months of age, 200-300 g) (n=10/group) were obtained from Harlan laboratories. Rats were housed in pairs, kept at 12 h light/12 h dark cycle and maintained in an air-conditioned room at a temperature of 21±1° C. and relative humidity of 60±10%. Food and water were available ad libitum. All rats were acclimated to the Veterinary Medical Unit for 1 week and handled daily. Weight was recorded every 2 days to assess for dehydration induced by the chemotherapy regime. All procedures were approved by the Institutional Animal Care and Use (IACUC) committee of the Bay Pines Veterans Affairs (VA) Healthcare System, in accordance with VA and The Guide for the Care and Use of Laboratory Animals. […]
This task evaluates spatial recognition memory and is based on the preferential exploration of a displaced object by rodents able to detect a novel placement of an object after remembering each object's original positions (Ennaceur A, Delacour J (1988) A new one-trial test for neurobiological studies of memory in rats. 1: Behavioral data. Behav Brain Res 31(1):47-59). […] The discrimination index (DI), which is a measure of spatial recognition memory, was calculated as follows: time spent exploring the object in the new location/total time spent exploring both objects.
Differences among the means were analyzed using one-way analysis of variance (ANOVA). […]

aromatase = target: T1, aromatase (Homo sapiens, UniProt P11511); conditions: in vitro; cited from earlier work
T1 sequence (P11511 1-503): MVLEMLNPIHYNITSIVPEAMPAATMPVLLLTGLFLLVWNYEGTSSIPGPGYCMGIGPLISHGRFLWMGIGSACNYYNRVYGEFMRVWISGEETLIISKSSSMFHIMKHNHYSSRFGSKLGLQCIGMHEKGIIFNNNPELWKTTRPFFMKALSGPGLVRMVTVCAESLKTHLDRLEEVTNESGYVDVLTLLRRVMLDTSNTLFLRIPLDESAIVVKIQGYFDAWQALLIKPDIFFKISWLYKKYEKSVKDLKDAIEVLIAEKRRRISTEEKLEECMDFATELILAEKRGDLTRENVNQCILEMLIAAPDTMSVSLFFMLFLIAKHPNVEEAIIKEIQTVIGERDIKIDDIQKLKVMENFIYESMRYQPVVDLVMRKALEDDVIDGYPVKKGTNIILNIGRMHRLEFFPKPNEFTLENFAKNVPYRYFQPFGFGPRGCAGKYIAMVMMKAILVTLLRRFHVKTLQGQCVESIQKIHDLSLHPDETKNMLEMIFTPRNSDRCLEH

What does the source list for `CN1C(=O)CC[C@H]1c1cccnc1` [cotinine, (5S)-1-methyl-5-(3-pyridyl) pyrrolidin-2-one]?
inflammatory response to gram-negative bacteria (expression of TNF-α, IL-1β and IL-6) (monocytes): reduced the inflammatory response; recall of a short list [1]: did not affected the recall; recall on the long list on a verbal recall task [1]: impaired recall; recovery of weight gain after chemotherapy ([2]; CMF-treated rats, cotinine 5 mg/kg oral daily from 3 days after chemotherapy, vs chemotherapy-treated control rats p<0.05): enhanced the recovery of weight gain; weight levels reached compared with vehicle-treated rats ([2]; cotinine 5 mg/kg oral daily, 30 days of experiments): indistinguishable from the vehicle-treated rats; ability to discriminate between old and new location of objects (discrimination index) [3]: restored the ability; location discrimination level compared with control rats ([3]; p>0.05): indistinguishable from control rats; inhibition of aromatase (aromatase): inhibiting
